{"source": "PubChem BioAssay (NCI)", "assay_in_all_cases": "inhibition of tumour cell growth, NCI panel, 48 h", "key": {"MDA-MB-231 breast": {"test_system": "MDA-MB-231 breast"}, "OVCAR-3 ovarian": {"test_system": "OVCAR-3 ovarian"}, "MCF7 breast": {"test_system": "MCF7 breast"}, "SF-268 CNS": {"test_system": "SF-268 CNS"}, "SK-MEL-5 melanoma": {"test_system": "SK-MEL-5 melanoma"}, "SN12C renal": {"test_system": "SN12C renal"}, "DU-145 prostate": {"test_system": "DU-145 prostate"}, "SNB-75 CNS": {"test_system": "SNB-75 CNS"}, "CAKI-1 renal": {"test_system": "CAKI-1 renal"}, "OVCAR-8 ovarian": {"test_system": "OVCAR-8 ovarian"}, "M14 melanoma": {"test_system": "M14 melanoma"}, "LOX IMVI melanoma": {"test_system": "LOX IMVI melanoma"}, "HS 578T breast": {"test_system": "HS 578T breast"}, "K-562 leukemia": {"test_system": "K-562 leukemia"}, "HOP-92 NSCLC": {"test_system": "HOP-92 NSCLC"}, "SF-539 CNS": {"test_system": "SF-539 CNS"}, "HT29 colon": {"test_system": "HT29 colon"}, "A549 NSCLC": {"test_system": "A549 NSCLC"}, "SF-295 CNS": {"test_system": "SF-295 CNS"}, "UACC-257 melanoma": {"test_system": "UACC-257 melanoma"}, "HOP-62 NSCLC": {"test_system": "HOP-62 NSCLC"}, "MDA-MB-435": {"test_system": "MDA-MB-435"}, "OVCAR-5 ovarian": {"test_system": "OVCAR-5 ovarian"}, "786-0 renal": {"test_system": "786-0 renal"}, "BT-549 breast": {"test_system": "BT-549 breast"}, "TK-10 renal": {"test_system": "TK-10 renal"}}, "note": "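Growth conditions: 96-well plates. Treatment: test compound, 48 hours, 5 concentrations. Analysis: linear interpolation between bracketing concentrations; unreached endpoints set to highest concentration. GI50 marks 50% less growth. The concentration for full growth arrest is given as TGI.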"}
{"compound": "COC[C@]12CC[C@@H](C)[C@H](C)[C@H]1C1=CC[C@@H]3[C@@]4(C)CCCNC(C)(C)[C@@H]4CC[C@@]3(C)[C@]1(C)CC2", "values": [{"measurement": "TGI", "setting": "MDA-MB-231 breast", "result": 3400, "unit": "nM"}, {"measurement": "GI50", "setting": "OVCAR-3 ovarian", "result": 1830, "unit": "nM"}, {"measurement": "TGI", "setting": "OVCAR-3 ovarian", "result": 3290, "unit": "nM"}, {"measurement": "GI50", "setting": "MCF7 breast", "result": 1540, "unit": "nM"}, {"measurement": "TGI", "setting": "MCF7 breast", "result": 3370, "unit": "nM"}, {"measurement": "GI50", "setting": "SF-268 CNS", "result": 1920, "unit": "nM"}, {"measurement": "TGI", "setting": "SF-268 CNS", "result": 3740, "unit": "nM"}, {"measurement": "GI50", "setting": "SK-MEL-5 melanoma", "result": 1710, "unit": "nM"}, {"measurement": "TGI", "setting": "SK-MEL-5 melanoma", "result": 3110, "unit": "nM"}, {"measurement": "GI50", "setting": "SN12C renal", "result": 3090, "unit": "nM"}, {"measurement": "TGI", "setting": "SN12C renal", "result": 11800, "unit": "nM"}, {"measurement": "GI50", "setting": "DU-145 prostate", "result": 1930, "unit": "nM"}, {"measurement": "TGI", "setting": "DU-145 prostate", "result": 3410, "unit": "nM"}, {"measurement": "GI50", "setting": "SNB-75 CNS", "result": 1770, "unit": "nM"}, {"measurement": "TGI", "setting": "SNB-75 CNS", "result": 4770, "unit": "nM"}, {"measurement": "GI50", "setting": "CAKI-1 renal", "result": 1750, "unit": "nM"}, {"measurement": "TGI", "setting": "CAKI-1 renal", "result": 3360, "unit": "nM"}, {"measurement": "GI50", "setting": "OVCAR-8 ovarian", "result": 2190, "unit": "nM"}, {"measurement": "TGI", "setting": "OVCAR-8 ovarian", "result": 4940, "unit": "nM"}, {"measurement": "GI50", "setting": "M14 melanoma", "result": 1770, "unit": "nM"}, {"measurement": "TGI", "setting": "M14 melanoma", "result": 3570, "unit": "nM"}, {"measurement": "GI50", "setting": "LOX IMVI melanoma", "result": 1130, "unit": "nM"}, {"measurement": "TGI", "setting": "LOX IMVI melanoma", "result": 2490, "unit": "nM"}, {"measurement": "GI50", "setting": "HS 578T breast", "result": 2040, "unit": "nM"}, {"measurement": "TGI", "setting": "HS 578T breast", "result": 4850, "unit": "nM"}, {"measurement": "GI50", "setting": "K-562 leukemia", "result": 1050, "unit": "nM"}, {"measurement": "TGI", "setting": "K-562 leukemia", "result": 2810, "unit": "nM"}, {"measurement": "GI50", "setting": "HOP-92 NSCLC", "result": 1540, "unit": "nM"}, {"measurement": "TGI", "setting": "HOP-92 NSCLC", "result": 4360, "unit": "nM"}, {"measurement": "GI50", "setting": "SF-539 CNS", "result": 1600, "unit": "nM"}, {"measurement": "TGI", "setting": "SF-539 CNS", "result": 3030, "unit": "nM"}, {"measurement": "GI50", "setting": "HT29 colon", "result": 1580, "unit": "nM"}, {"measurement": "TGI", "setting": "HT29 colon", "result": 3260, "unit": "nM"}, {"measurement": "GI50", "setting": "A549 NSCLC", "result": 1800, "unit": "nM"}, {"measurement": "TGI", "setting": "A549 NSCLC", "result": 3770, "unit": "nM"}, {"measurement": "GI50", "setting": "SF-295 CNS", "result": 1880, "unit": "nM"}, {"measurement": "TGI", "setting": "SF-295 CNS", "result": 3570, "unit": "nM"}, {"measurement": "GI50", "setting": "UACC-257 melanoma", "result": 2050, "unit": "nM"}, {"measurement": "TGI", "setting": "UACC-257 melanoma", "result": 4460, "unit": "nM"}, {"measurement": "GI50", "setting": "HOP-62 NSCLC", "result": 1730, "unit": "nM"}, {"measurement": "TGI", "setting": "HOP-62 NSCLC", "result": 3550, "unit": "nM"}, {"measurement": "GI50", "setting": "MDA-MB-435", "result": 1650, "unit": "nM"}, {"measurement": "TGI", "setting": "MDA-MB-435", "result": 3110, "unit": "nM"}, {"measurement": "GI50", "setting": "OVCAR-5 ovarian", "result": 1810, "unit": "nM"}, {"measurement": "TGI", "setting": "OVCAR-5 ovarian", "result": 3320, "unit": "nM"}, {"measurement": "GI50", "setting": "786-0 renal", "result": 1690, "unit": "nM"}, {"measurement": "TGI", "setting": "786-0 renal", "result": 3210, "unit": "nM"}, {"measurement": "GI50", "setting": "BT-549 breast", "result": 1800, "unit": "nM"}, {"measurement": "TGI", "setting": "BT-549 breast", "result": 3600, "unit": "nM"}, {"measurement": "GI50", "setting": "TK-10 renal", "result": 1870, "unit": "nM"}, {"measurement": "TGI", "setting": "TK-10 renal", "result": 3520, "unit": "nM"}]}
